Results from ChEMBL document CHEMBL1155619, “Kurstakins: a new class of lipopeptides isolated from Bacillus thuringiensis” (2000).
The source made the active and inactive calls. The rule behind the calls is not given here. Starred links: 1 amine or outer side, 2 acyl side, 3 side chain; linkers in the order of their positions; H or OH if unused. Positions of bridges follow the written chain, without caps; N, C: chain ends. Non-standard residues stand in square brackets, D forms with d. Residues, ends and D or L forms follow the SMILES beside them. X1 = CC(C)CCCCCCCCC[C@H](CC(=O)[*:1])O[*:2]

Tested on: Stachybotrys chartarum
Test: Antifungal activity against Stachybotrys charatum assessed as zone of inhibition at 80 ug after 24 hrs
Assay type: functional

## CC(C)CCCCCCCCC[C@@H]1CC(=O)N[C@@H](CCC(=O)O)C(=O)N[C@@H](CC(C)C)C(=O)N[C@H](CC(C)C)C(=O)N[C@@H](C(C)C)C(=O)N[C@@H](CC(=O)O)C(=O)N[C@H](CC(C)C)C(=O)N[C@@H](CC(C)C)C(=O)O1 (EL[dL]VD[dL]L; linker N-C via X1)
  Activity: inactive
